{
  "source": "patent US6048892A",
  "about": "“Ester compound pesticide containing thereof” (Sumitomo Chemical Company, Limited, priority 1999, dated 2000)",
  "assay_type_in_all_cases": "in vivo",
  "key": {"[1]": {"test_system": "common mosquitoes (Culex pipiens pallens)", "assay": "Biological Test 11: mosquitoes in cup over treated aluminum plate without direct contact, mortality", "conditions": "24 h", "procedure": "After 0.64 ml of a 0.05 (w/v) % acetone solution of the present compounds was dropped into an aluminum plate (bottom diameter: 7 cm), acetone was air-dried. Ten female common mosquitoes (Culex pipiens pallens) were left in a polyethylene cup (diameter: 9 cm; depth: 4.5 cm) and the cup was sealed with a 16-mesh nylon net to prevent direct contact of the mosquitoes with the compound. The cup was placed upside down on the aluminum plate at 25° C. for 120 minutes. The cup was then removed from the aluminum plate, and water and feed were given to the mosquitoes. After 24 hours, the mortality was examined (two replicate)."}, "[2]": {"test_system": "common mosquitoes (Culex pipiens pallens)", "assay": "Biological Test 8: knock-down of mosquitoes by mosquito-coil", "conditions": "1.0 g of 0.3% mosquito-coil in 0.34 m^3 chamber; after 15 minutes", "procedure": "Mosquito-coil containing the present compound in an amount of 0.3% was prepared according to the formulation example 10 for the present compounds. Ten female common mosquitoes (Culex pipiens pallens) were left in a glass chamber (70 cm×70 cm×70 cm: 0.34 m^3) and 1.0 g of 0.3% mosquito-coil having both ends lit was placed in the glass chamber. After 15 minutes, the rate of knocked-down mosquitoes was examined."}, "[3]": {"test_system": "German cockroaches (Blattella germanica)", "assay": "Biological Test 5: mortality of male German cockroaches low sensitive to pyrethroids, treated filter paper", "conditions": "144 h", "procedure": "Filter paper of 5.5 cm in diameter was laid in the bottom of a polyethylene cup (diameter: 5.5 cm). After 0.7 ml of a 500 ppm aqueous emulsion obtained by diluting each emulsifiable concentrate prepared according to the formulation example 1 was dropped on the filter paper and approximately 30 mg of sucrose as bait was uniformly scattered. Two male German cockroaches (Blattella germanica), which were low sensitive to pyrethroids, were left in the cup with a cover. After six days, the mortality was examined."}, "[4]": {"test_system": "webbing clothes moth (Tineola bisselliella)", "assay": "Biological Test 12: topical application to larvae of webbing clothes moth, mortality and fabric damage", "procedure": "Each of the present compounds diluted with acetone to a predetermined concentration was applied to ten middle instar larvae of webbing clothes moth (Tineola bisselliella) at the central part of the back so as to give the active ingredient in a dose of 3 μg/insect. A wool muslin fabric (2 cm×2 cm in size) was given to the webbing clothes moths as the food. After 7 days, the mortality and the degree of damage of the wool muslin fabric by the moths were examined (two replicate)."}},
  "data": [
    {"compound": "Cc1ccc(COC(=O)[C@@H]2[C@H](/C=C(\\Cl)C(F)(F)F)C2(C)C)o1", "note": "(relative stereo) [Compound (1), 5-methyl-2-furfuryl (1RS,cis)-3-(Z-2-chloro-3,3,3-trifluoroprop-1-enyl)-2,2-dimethylcyclopropanecarboxylate]", "values": [
      {"measurement": "mortality at 500 µg/mL", "setting": "[1]", "result": 100, "unit": "%"},
      {"measurement": "rate of knocked-down mosquitoes", "setting": "[2]", "result": 100, "unit": "%"},
      {"measurement": "mortality at 500 ppm", "setting": "[3]", "result": 100, "unit": "%"},
      {"measurement": "degree of damage of the wool muslin fabric", "setting": "[4]; 3 μg/insect, after 7 days", "result": "no damage"},
      {"measurement": "mortality at 0.003 mg", "setting": "[4]; Tineola bisselliella, 168 h", "result": 100, "unit": "%"}
    ]}
  ]
}
